Consider eight compounds from ChEMBL document CHEMBL1131709, “Acyl-CoA: cholesterol acyltransferase inhibitory activity of ginseng sapogenins, produced from the ginseng saponins” (Bioorg Med Chem Lett, 1999).

SMILES strings stand for the structures.

The target in the assay is T1, Sterol O-acyltransferase 1 (Rattus norvegicus, UniProt O70536).
T1 sequence (O70536 whole entry): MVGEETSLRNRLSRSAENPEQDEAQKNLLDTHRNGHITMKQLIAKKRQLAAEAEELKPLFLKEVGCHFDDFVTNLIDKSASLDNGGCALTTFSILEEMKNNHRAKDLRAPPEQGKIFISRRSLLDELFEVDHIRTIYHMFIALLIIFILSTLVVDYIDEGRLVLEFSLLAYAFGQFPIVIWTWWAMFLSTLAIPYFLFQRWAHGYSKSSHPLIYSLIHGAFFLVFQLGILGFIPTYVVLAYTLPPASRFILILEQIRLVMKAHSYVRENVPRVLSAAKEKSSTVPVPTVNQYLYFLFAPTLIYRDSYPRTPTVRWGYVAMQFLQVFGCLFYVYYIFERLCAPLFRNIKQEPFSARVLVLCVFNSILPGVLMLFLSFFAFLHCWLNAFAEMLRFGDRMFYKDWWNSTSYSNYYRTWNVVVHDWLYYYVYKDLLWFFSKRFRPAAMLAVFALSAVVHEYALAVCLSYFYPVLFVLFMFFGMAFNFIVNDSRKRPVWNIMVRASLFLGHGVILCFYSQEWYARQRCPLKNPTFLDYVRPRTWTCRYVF
The assay can be described thus: In vitro inhibitory activity of compound was measured on rat liver Acyl coenzyme A:cholesterol acyltransferase.
`CC(C)=CCC[C@@](C)(O)[C@H]1CC[C@]2(C)[C@@H]1[C@H](O)C[C@@H]1[C@@]3(C)CC[C@H](O)C(C)(C)[C@@H]3CC[C@]12C` showed an IC50 of 10 µM.

For `CC1(C)CCC[C@](C)(C2CC[C@]3(C)C2[C@H](O)CC2[C@@]4(C)CC[C@H](O)C(C)(C)C4CC[C@]23C)O1` (stereo partly drawn), the IC50 was 55 µM. For `CC1(C)CCC[C@](C)(C2CC[C@]3(C)C2[C@H](O)CC2[C@@]4(C)CC[C@H](O)C(C)(C)C4[C@@H](O)C[C@]23C)O1` (stereo partly drawn), the IC50 worked out at 12 µM. The compound `CC(C)=CCC[C@](C)(O)C1CC[C@]2(C)C1[C@H](O)CC1[C@@]3(C)CC[C@H](O)C(C)(C)C3[C@@H](O)C[C@]12C` (stereo partly drawn) yielded a half-inhibitory concentration (IC50) of 24 µM. As for `CC1(C)CCC[C@@](C)(C2CC[C@]3(C)C2[C@H](O)CC2[C@@]4(C)CC[C@H](O)C(C)(C)C4[C@@H](O)C[C@]23C)O1` (stereo partly drawn), the figure is 28 µM; as for `CC1(C)CCC[C@@](C)(C2CC[C@]3(C)C2[C@H](O)CC2[C@@]4(C)CC[C@H](O)C(C)(C)C4CC[C@]23C)O1` (stereo partly drawn), 25 µM; as for `CC(C)=CCC[C@@](C)(O)[C@H]1CC[C@]2(C)C1[C@H](O)C[C@@H]1[C@@]3(C)CC[C@H](O)C(C)(C)[C@@H]3[C@@H](O)C[C@]12C` (stereo partly drawn), 6 µM. Take `CC(C)=CCC[C@](C)(O)[C@H]1CC[C@]2(C)[C@@H]1[C@H](O)C[C@@H]1[C@@]3(C)CC[C@H](O)C(C)(C)[C@@H]3CC[C@]12C`: the IC50 worked out at 30 µM.
